According to US20070254905A1, “Pharmaceutical Formulation for Increasing Solubility of 10-Hydroxycamptothecin Compounds in Non-Aqueous Polar Solvents” (priority 2004, published 2007):
Converted amounts (≈) assume the structure as drawn. Read-outs that look alike come from different tables or passages of the source.

Legend:
acetylcholine = conditions: compared with CPT-11; cited from earlier work
[1] = SN-38 content, lactone/carboxy anion ratio and pH after dilution of surfactant composition with aqueous solution; format: physicochemical; conditions: tromethamine/ethanol/cremophore EL solution, refrigerator 1 week, diluted with 0.9% saline to 5 Ml
[2] = cited from earlier work
physchem = conditions: organic solvent or mixture, thermodynamic from solid
[3] = format: physicochemical
topoisomerase □ = target: T1, topoisomerase □ (Homo sapiens, UniProt P11387); conditions: relative to CPT-11; cited from earlier work
T1 sequence (P11387 1-765): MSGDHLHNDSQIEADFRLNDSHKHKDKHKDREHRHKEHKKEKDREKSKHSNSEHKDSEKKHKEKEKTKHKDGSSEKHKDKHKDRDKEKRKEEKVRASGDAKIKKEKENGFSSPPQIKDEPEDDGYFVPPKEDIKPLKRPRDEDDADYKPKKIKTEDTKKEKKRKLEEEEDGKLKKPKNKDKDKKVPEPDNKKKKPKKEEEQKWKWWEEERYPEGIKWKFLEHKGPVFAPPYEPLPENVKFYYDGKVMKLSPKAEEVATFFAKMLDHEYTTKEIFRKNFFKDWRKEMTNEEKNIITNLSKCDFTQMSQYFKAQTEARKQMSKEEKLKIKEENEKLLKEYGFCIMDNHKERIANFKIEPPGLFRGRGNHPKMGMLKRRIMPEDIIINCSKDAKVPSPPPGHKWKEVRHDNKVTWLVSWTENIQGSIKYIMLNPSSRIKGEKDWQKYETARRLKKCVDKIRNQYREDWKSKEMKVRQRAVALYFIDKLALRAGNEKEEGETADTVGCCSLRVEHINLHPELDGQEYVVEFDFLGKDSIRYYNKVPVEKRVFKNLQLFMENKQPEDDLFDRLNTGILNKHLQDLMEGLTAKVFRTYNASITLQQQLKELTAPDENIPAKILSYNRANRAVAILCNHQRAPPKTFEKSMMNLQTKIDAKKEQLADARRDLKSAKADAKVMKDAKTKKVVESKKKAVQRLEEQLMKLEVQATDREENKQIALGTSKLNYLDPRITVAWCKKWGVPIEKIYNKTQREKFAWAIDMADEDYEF

[4] = Lyophilized SN-38 formulation reconstituted with water for injection, HPLC and pH; format: physicochemical
Description: Alternatively, a 10-hydroxycamptothecin compound and an amine compound are solubilized in non-aqueous polar solvent, and polymer surfactant is added thereto to prepare a solution. Next, a caking agent for lyophilization is added thereto to prepare a lyophilized formulation. As a specific example, 250 mg of copolymer (mPEG-PLA) of polyethyleneglycol (molecular weight: 2,000 daltons) and polylactic acid (molecular weight: 1,800 daltons) maybe added to a solution in which SN-38 and tromethamine are solubilized in anhydrous ethanol as above, to prepare a pure solution, and then 4 Ml of aqueous mannitol solution (100 mg/Ml) as a caking agent for lyophilization is added thereto, which is filtered with a filter having a pore size of 200 nm, and lyophilized. This lyophilized formulation is reconstituted with 4 Ml of water for injection, and then analyzed by HPLC to confirm that the concentration of SN-38 was 205 μg/Ml, 92% or more of SN-38 existed in the form of a lactone, and the pH of the aqueous solution was 8.4.
12 mg of tromethamine was dissolved in 1 ml of anhydrous ethanol, and 1 mg of SN-38 was added thereto and heated to 60[…] to prepare a pure solution of orange color. Subsequently, the block copolymer of methoxypolyethyleneglycol and polylactic acid, and 200 mg of mPEG-PLA (mPEG molecular weight: 2,000 daltons, PLA molecular weight: 1,800 daltons) were added thereto to prepare a pure solution. Then, 5 ml of aqueous mannitol solution (50 mg/ml) was added thereto, mixed, filtered with a filter having a pore size of 200 nm, and lyophilized to prepare a lyophilized formulation.
Injectable water of 4 Ml was added to the lyophilized vial to reconstitute the lyophilized formulation.

[5] = anhydrous ethanol, 10 equivalents of triethanolamine
[6] = lyophilized with 250 mg mPEG-PLA, tromethamine, mannitol, reconstituted with 4 Ml water for injection

## CCc1c2c(nc3ccc(O)cc13)-c1cc3c(c(=O)n1C2)COC(=O)C3(O)CC (stereo not drawn) [SN-38, 7-ethyl-10-hydroxycamptothecin]
acetylcholine
  Effect for inhibiting acetylcholine which causes diarrhea: much lower than that of CPT-11
[1]
  Concentration of SN-38: 220 µg/mL
  SN-38 in the form of the lactone: ≥ 95%
  pH of the solution diluted with saline: 8.7
[2]; active lactone form
  Solubility in water of the active lactone form: not more than 10 μg/ml
[2]
  Solubility of SN-38 in water: not more than 10 μg/ml
[2]; inactive carboxy anion form
  Solubility in water of the carboxy anion form: ≥ 4000 µg/mL
physchem; Solubility of SN-38 in ethanol, ethanol, no amine
  solubility at 12 h: 8 µg/mL (≈ 20.4 µM)
physchem; Solubility of SN-38 in ethanol, in the presence of 5 or more equivalents of diethanolamine
  solubility at 12 h: ≥ 1000 µg/mL
physchem; Solubility, SN-38 1 mg in 1 ml anhydrous ethanol, amine compound 10 equivalents, room temperature 12 hours
  solubility at 12 h: ≥ 1000 µg/mL
physchem; Solubility, SN-38 1 mg in 1 ml organic solvent, tromethamine 10 equivalents, room temperature 12 hours
  solubility at 12 h: ≥ 1000 µg/mL
Anhydrous ethanol without adding an amine compound
  Solubility of SN-38: a few
[5]
  Solubility of SN-38: about 1 mg/Ml
[3]; 1 mg SN-38, 10 mg tromethamine, 1 Ml anhydrous ethanol, 500 mg cremophore EL, diluted with acetonitrile
  SN-38 in the form of a lactone: 100%
[3]; SN-38 1 mg in 1 ml anhydrous ethanol, amine compound 10 equivalents
  Lacton content: 100%
[3]; SN-38 1 mg in 1 ml organic solvent, tromethamine 10 equivalents
  Lacton content: 100%
[3]; [5]
  Form of SN-38 by HPLC analysis: no carboxy anion form was observed
Topoisomerase □
  Activity for inhibiting topoisomerase □, higher than that of CPT-11: about 1,000 times
[4]; Example 8: 12 mg tromethamine, 200 mg mPEG-PLA, mannitol, lyophilized, reconstituted with 4 Ml injectable water
  pH of the aqueous solution: 8.4
[4]; Example 8 lyophilized formulation reconstituted with 4 Ml injectable water
  Lactone form of SN-38: 97%
[4]; Example 8 lyophilized formulation reconstituted with 4 Ml injectable water, HPLC
  Drug content: 242 µg/mL
[4]; [6]
  Concentration of SN-38: 205 µg/mL
  SN-38 in the form of a lactone: ≥ 92%
  pH of the aqueous solution: 8.4
